Measurements: patent US20250145633A1, “SUBSTITUTED FURANOPYRIMIDINE COMPOUNDS AS PDE1 INHIBITORS” (Dart NeuroScience, LLC, priority 2017, published 2025)

What follows are compounds tested against human PDE1B enzyme (Homo sapiens (Human), UniProt Q01064) (assay: IMAP TR-FRET PDE1B enzymatic assay). Settings: negative log of half-maximal molar inhibitory concentration; 200 nM FAM-cAMP; values given as bins.
Assay type: biochemical
How it was run: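 Full-length GST-tagged human PDE1B (250 pg/well) in IMAP BSA buffer with 10 U/ml calmodulin and 2.5 mM CaCl2; compound pre-incubated 5 min at room temperature, then 200 nM (final) FAM-cAMP for 30 min. IMAP binding reagent/Tb added, 1 h; TR-FRET 520/490 ratio read. IC50 from sigmoidal dose-response fit.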
`COc1cc(CNC(=O)c2c(C)oc3ncnc(NC4(C)CC4)c23)ncn1` [Example 666, N-[(6-Methoxypyrimidin-4-yl)methyl]-6-methyl-4-[(1-methylcyclopropyl)amino]furo[2,3-d]pyrimidine-5-carboxamide] was tested, and the “PDE1b (pIC50)” value was over 8. In the case of `Cc1oc2ncnc(NC3(C)CC3)c2c1C(=O)N1CCC(c2ncc(O)cn2)CC1` [Example 355, 2-(1-{6-Methyl-4-[(1-methylcyclopropyl)amino]furo[2,3-d]pyrimidine-5-carbonyl}piperidin-4-yl)pyrimidin-5-ol], the “PDE1b (pIC50)” value is reported as over 8. With `COc1ccccc1OCCNC(=O)c1c(C)oc2ncnc(NC3(C)CC3)c12` [Example 557, N-[2-(2-Methoxyphenoxy)ethyl]-6-methyl-4-[(1-methylcyclopropyl)amino]furo[2,3-d]pyrimidine-5-carboxamide] the “PDE1b (pIC50)” value was over 8. For `Cc1oc2ncnc(NC3(C)CC3)c2c1C(=O)NCc1nc(C(F)(F)F)cs1` [Example 704, 6-Methyl-4-[(1-methylcyclopropyl)amino]-N-{[4-(trifluoromethyl)-1,3-thiazol-2-yl]methyl}furo[2,3-d]pyrimidine-5-carboxamide], the “PDE1b (pIC50)” value was over 8. In the case of `Cc1oc2ncnc(NC3(C)CC3)c2c1C(=O)NCc1cc(C2CC2)on1` [Example 323, N-[(5-Cyclopropyl-1,2-oxazol-3-yl)methyl]-6-methyl-4-[(1-methylcyclopropyl)amino]furo[2,3-d]pyrimidine-5-carboxamide], the “PDE1b (pIC50)” value is reported as over 8. With `COc1ccc([C@@H](C)NC(=O)c2c(C)oc3ncnc(NC4(C)CC4)c23)c(F)c1` [Example 306, N-[(1R)-1-(2-Fluoro-4-methoxyphenyl)ethyl]-6-methyl-4-[(1-methylcyclopropyl)amino]furo[2,3-d]pyrimidine-5-carboxamide] the “PDE1b (pIC50)” value was over 8. `Cc1oc2ncnc(NC3(C)CC3)c2c1C(=O)NCc1ncc2c(n1)CCC2` [Example 648, N-{5H,6H,7H-Cyclopenta[d]pyrimidin-2-ylmethyl}-6-methyl-4-[(1-methylcyclopropyl)amino]furo[2,3-d]pyrimidine-5-carboxamide] was tested, and the “PDE1b (pIC50)” value was over 8. `Cc1oc2ncnc(NC3(C)CC3)c2c1C(=O)N1CCC(Oc2cccc(F)c2)C1` (stereo not shown) [Example 398, 5-[3-(3-Fluorophenoxy)pyrrolidine-1-carbonyl]-6-methyl-N-(1-methylcyclopropyl)furo[2,3-d]pyrimidin-4-amine] was tested, and the “PDE1b (pIC50)” value was over 8. For `Cc1oc2ncnc(NC3(C)CC3)c2c1C(=O)N1CCN(c2ccc(F)cn2)CC1` [Example 43, 5-[4-(5-Fluoropyridin-2-yl)piperazine-1-carbonyl]-6-methyl-N-(1-methylcyclopropyl)furo[2,3-d]pyrimidin-4-amine], the “PDE1b (pIC50)” value was over 8.

Same assay, conditions: negative log of half-maximal molar inhibitory concentration; 200 nM FAM-cAMP; values given as bins; read-out: PDE1b (pIC50) (converted)
`Cc1oc2ncnc(NC3(C)CC3)c2c1C(=O)N1CCn2c(C)nc(C3CCOCC3)c2C1` [Example 639, 6-Methyl-5-[3-methyl-1-(oxan-4-yl)-5H,6H,7H,8H-imidazo[1,5-a]pyrazine-7-carbonyl]-N-(1-methylcyclopropyl)furo[2,3-d]pyrimidin-4-amine] was tested, and the IC50 was 100 to 1000 nM. `Cc1oc2ncnc(NC3(C)CC3)c2c1C(=O)Nc1cnc(N2CCOCC2)nc1` [Example 657, 6-Methyl-4-[(1-methylcyclopropyl)amino]-N-[2-(morpholin-4-yl)pyrimidin-5-yl]furo[2,3-d]pyrimidine-5-carboxamide] was tested, and the IC50 was 10 to 100 nM. For `Cc1oc2ncnc(NC3(C)CC3)c2c1C(=O)NC1(c2ccccc2)COC1` [Example 130, 6-Methyl-4-[(1-methylcyclopropyl)amino]-N-(3-phenyloxetan-3-yl)furo[2,3-d]pyrimidine-5-carboxamide], the IC50 was 10 to 100 nM. `COc1cccc(F)c1CNC(=O)c1c(C)oc2ncnc(NC3(C)CC3)c12` [Example 547, N-[(2-Fluoro-6-methoxyphenyl)methyl]-6-methyl-4-[(1-methylcyclopropyl)amino]furo[2,3-d]pyrimidine-5-carboxamide] gave an IC50 of 10 to 100 nM. `CCOc1cccc(F)c1CNC(=O)c1c(C)oc2ncnc(NC3(C)CC3)c12` [Example 552, N-[(2-Ethoxy-6-fluorophenyl)methyl]-6-methyl-4-[(1-methylcyclopropyl)amino]furo[2,3-d]pyrimidine-5-carboxamide] showed an IC50 of 10 to 100 nM. `Cc1oc2ncnc(NC3(C)CC3)c2c1C(=O)NCCc1ccco1` [Example 188, N-[2-(Furan-2-yl)ethyl]-6-methyl-4-[(1-methylcyclopropyl)amino]furo[2,3-d]pyrimidine-5-carboxamide] was tested, and the IC50 was 10 to 100 nM. Work on `Cc1oc2ncnc(NC3(C)CC3)c2c1C(=O)N1CCn2c(Br)cnc2C1` [Example 624, 5-{3-Bromo-5H,6H,7H,8H-imidazo[1,2-a]pyrazine-7-carbonyl}-6-methyl-N-(1-methylcyclopropyl)furo[2,3-d]pyrimidin-4-amine] yielded an IC50 of 10 to 100 nM. Work on `Cc1oc2ncnc(NC3(C)CC3)c2c1C(=O)NC(C)C1(C)CC1` (stereo not shown) [Example 402, 6-Methyl-4-[(1-methylcyclopropyl)amino]-N-[1-(1-methylcyclopropyl)ethyl]furo[2,3-d]pyrimidine-5-carboxamide] yielded an IC50 of 10 to 100 nM. Work on `Cc1oc2ncnc(NC3(C)CC3)c2c1C(=O)NC(C)(C)c1ccccn1` [Example 78, 6-Methyl-4-[(1-methylcyclopropyl)amino]-N-[2-(pyridin-2-yl)propan-2-yl]furo[2,3-d]pyrimidine-5-carboxamide] yielded an IC50 of 10 to 100 nM. In the case of `CCCNC(=O)c1c(C)oc2ncnc(NC3(C)CC3)c12` [Example 211, 6-Methyl-4-[(1-methylcyclopropyl)amino]-N-propylfuro[2,3-d]pyrimidine-5-carboxamide], the IC50 is reported as 10 to 100 nM. Compound `Cc1oc2ncnc(NC3(C)CC3)c2c1C(=O)N(C)Cc1ccc(F)cc1` [Example 248, N-[(4-Fluorophenyl)methyl]-N,6-dimethyl-4-[(1-methylcyclopropyl)amino]furo[2,3-d]pyrimidine-5-carboxamide] has an IC50 of 10 to 100 nM. With `Cc1oc2ncnc(NC3(C)CC3)c2c1C(=O)N1CCC(c2ncc(OCF)cn2)CC1` [Example 770, 5-{4-[5-(Fluoromethoxy)pyrimidin-2-yl]piperidine-1-carbonyl}-6-methyl-N-(1-methylcyclopropyl)furo[2,3-d]pyrimidin-4-amine] the IC50 was 10 to 100 nM. For `COc1ncnc2c1CN(C(=O)c1c(C)oc3ncnc(NC4(C)CC4)c13)CC2` [Example 663, 5-{4-Methoxy-5H,6H,7H,8H-pyrido[4,3-d]pyrimidine-6-carbonyl}-6-methyl-N-(1-methylcyclopropyl)furo[2,3-d]pyrimidin-4-amine], the IC50 was 100 to 1000 nM. Compound `Cc1oc2ncnc(NC3(C)CC3)c2c1C(=O)NCCF` [Example 125, N-(2-Fluoroethyl)-6-methyl-4-[(1-methylcyclopropyl)amino]furo[2,3-d]pyrimidine-5-carboxamide] has an IC50 of 10 to 100 nM. For `Cc1oc2ncnc(NC3(C)CC3)c2c1C(=O)Nc1ccc(C2CCOCC2)cc1` [Example 721, 6-Methyl-4-[(1-methylcyclopropyl)amino]-N-[4-(oxan-4-yl)phenyl]furo[2,3-d]pyrimidine-5-carboxamide], the IC50 was 100 to 1000 nM. Work on `Cc1oc2ncnc(NC3(C)CC3)c2c1C(=O)N1CCc2nc(F)ncc2C1` [Example 303, 5-{2-Fluoro-5H,6H,7H,8H-pyrido[4,3-d]pyrimidine-6-carbonyl}-6-methyl-N-(1-methylcyclopropyl)furo[2,3-d]pyrimidin-4-amine] yielded an IC50 of 100 to 1000 nM. In the case of `Cc1oc2ncnc(NC3(C)CC3)c2c1C(=O)N1CCC(Cc2ccc(F)cc2)C1` (stereo not shown) [Example 414, 5-{3-[(4-Fluorophenyl)methyl]pyrrolidine-1-carbonyl}-6-methyl-N-(1-methylcyclopropyl)furo[2,3-d]pyrimidin-4-amine], the IC50 is reported as 10 to 100 nM. For `COc1ccccc1CN(C)C(=O)c1c(C)oc2ncnc(NC3(C)CC3)c12` [Example 528, N-[(2-Methoxyphenyl)methyl]-N,6-dimethyl-4-[(1-methylcyclopropyl)amino]furo[2,3-d]pyrimidine-5-carboxamide], the IC50 was 10 to 100 nM. `Cc1cc2c(cn1)CCN(C(=O)c1c(C)oc3ncnc(NC4(C)CC4)c13)C2` [Example 283, 6-Methyl-5-(7-methyl-1,2,3,4-tetrahydro-2,6-naphthyridine-2-carbonyl)-N-(1-methylcyclopropyl)furo[2,3-d]pyrimidin-4-amine] showed an IC50 of 10 to 100 nM. Work on `Cc1oc2ncnc(NC3(C)CC3)c2c1C(=O)N1CCC(c2cccnc2)C1` (stereo not shown) [Example 71, 6-Methyl-N-(1-methylcyclopropyl)-5-[3-(pyridin-3-yl)pyrrolidine-1-carbonyl]furo[2,3-d]pyrimidin-4-amine] yielded an IC50 of 10 to 100 nM. `Cc1cc(N2CCC(NC(=O)c3c(C)oc4ncnc(NC5(C)CC5)c34)CC2)nc(C)n1` [Example 672, N-[1-(2,6-Dimethylpyrimidin-4-yl)piperidin-4-yl]-6-methyl-4-[(1-methylcyclopropyl)amino]furo[2,3-d]pyrimidine-5-carboxamide] gave an IC50 of 100 to 1000 nM. `Cc1oc2ncnc(NC3(C)CC3)c2c1C(=O)N1CCN(c2cc(F)ncn2)CC1` [Example 161, 5-[4-(6-Fluoropyrimidin-4-yl)piperazine-1-carbonyl]-6-methyl-N-(1-methylcyclopropyl)furo[2,3-d]pyrimidin-4-amine] was tested, and the IC50 was 10 to 100 nM. For `Cc1oc2ncnc(NC3(C)CC3)c2c1C(=O)NCc1cnc(Cl)nc1` [Example 313, N-[(2-Chloropyrimidin-5-yl)methyl]-6-methyl-4-[(1-methylcyclopropyl)amino]furo[2,3-d]pyrimidine-5-carboxamide], the IC50 was 10 to 100 nM. With `Cc1oc2ncnc(NC3(C)CC3)c2c1C(=O)NCC1(F)COC1` [Example 94, N-[(3-Fluorooxetan-3-yl)methyl]-6-methyl-4-[(1-methylcyclopropyl)amino]furo[2,3-d]pyrimidine-5-carboxamide] the IC50 was 100 to 1000 nM. `Cc1oc2ncnc(NC3(C)CC3)c2c1C(=O)NCc1cnc(Cl)cn1` [Example 8, N-((5-Chloropyrazin-2-yl)methyl)-6-methyl-4-((1-methylcyclopropyl)amino)furo[2,3-d]pyrimidine-5-carboxamide] showed an IC50 of 10 to 100 nM.
